The target of one test is IRAK1 (Homo sapiens (Human), UniProt P51617). In words: Ambit KINOSCAN assay. It counts as binding. The method, then:
(§1) Kinase Selectivity Studies
(§2) To directly test the kinase selectivity of a compound of the present application over other human protein kinases, the compounds were tested in an Ambit KINOSCAN assay. Ambit KINOSCAN assay is an ATP site dependent competition assay. T7 kinase-tagged phage strains were grown in parallel in 24- or 96-well blocks in an E. coli host derived from the BL21 strain. E. Coli were grown to log phase and infected with T7 phage from a frozen stock and incubated with shaking at about 32° C. until lysis (˜90 min). The lysates were centrifuged (6,000 g) and filtered ([…]) to remove cell debris. […] The liganded beads were blocked with excess biotin and washed with blocking buffer (Seablock (Pierce), 1% BSA, 0.05% Tween 20, 1 mM DTT) to remove unbound ligand and to reduce non-specific phage binding. Binding reactions were assembled by combining phage lysates, liganded affinity beads, and test compounds (i.e., compounds of the present application) in 1× binding buffer (20% SeaBlock, 0.17×PBS, 0.05% Tween […]). Test compounds were prepared 1000× stocks in DMSO and rapidly diluted into the aqueous environment (0.1% DMSO final). DMSO (0.1%) was used as a control. All reactions were carried out in polystyrene 96-well plates that had been pre-treated with blocking buffer in a final volume of 0.1 ml. […] The phage titer in the eluates was measured by standard plaque assays or quantitative PCR. Binding data were fit to the equation […]), where L is the lower baseline, H is the upper baseline, Kd(test) is the biding constant for the interaction between the test compound and the kinase, and [test] is the free test compound concentration. Binding constants are measured in duplicate on the same day of testing. For more details on the Ambit KINOSCAN assay see Fabian, M. A., et al. “A Small Molecule-Kinase Interaction Map for Clinical Kinase Inhibitors” Nat. Biotechol. 23(3), 2005, 329-336. (Also see Davis, M. I., et al. “Comprehensive analysis of kinase inhibitor selectivity.” Nat. Biotechnol. 29(11), 2011, 1046-1051)

The next test deals with CIT (Homo sapiens (Human), UniProt O14578). In words: Ambit KINOSCAN assay. The test is classed as binding. Particulars: read-out: percent control (%) at 1 uM. The method, then:
as §1, §2

The next test deals with CSNK1A1 (Homo sapiens (Human), UniProt P48729). In words: Ambit KINOSCAN assay. It counts as binding. Conditions: read-out: percent control (%) at 1 uM. On the procedure: as §1, §2
For another test, the target named is DRAK1 (Homo sapiens (Human), UniProt Q9UEE5). In words: Ambit KINOSCAN assay. It counts as binding. Particulars: read-out: percent control (%) at 1 uM. On the procedure:
as §1, §2

The target in another test is CLK1 (Homo sapiens (Human), UniProt P49759). In words: Ambit KINOSCAN assay. It counts as binding. Conditions: read-out: percent control (%) at 1 uM. On the procedure:
as §1, §2

A further test concerns the target CSNK1E (Homo sapiens (Human), UniProt P49674). Briefly: Ambit KINOSCAN assay. The test is classed as binding. The method, then: as §1, §2
For the next test, the target named is DYRK2 (Homo sapiens (Human), UniProt Q92630). Briefly: Ambit KINOSCAN assay. Particulars: read-out: percent control (%) at 1 uM. The test is classed as binding. The method, then:
as §1, §2

For the next test, the target named is CSNK1G3 (Homo sapiens (Human), UniProt Q9Y6M4). In words: Ambit KINOSCAN assay. It counts as binding. On the procedure:
as §1, §2

The next test concerns the target CSNK1A1L (Homo sapiens (Human), UniProt Q8N752). Briefly: Ambit KINOSCAN assay. The test is classed as binding. Particulars: read-out: percent control (%) at 1 uM. On the procedure:
as §1, §2

The target of another test is CLK4 (Homo sapiens (Human), UniProt Q9HAZ1). In words: Ambit KINOSCAN assay. The test is classed as binding. Conditions: read-out: percent control (%) at 1 uM. On the procedure: as §1, §2
The next test addresses DYRK1B (Homo sapiens (Human), UniProt Q9Y463). Briefly: Ambit KINOSCAN assay. It counts as binding. Particulars: read-out: percent control (%) at 1 uM. The method, then: as §1, §2
A further test deals with DYRK1A (Homo sapiens (Human), UniProt Q13627). In words: Ambit KINOSCAN assay. The test is classed as binding. Conditions: read-out: percent control (%) at 1 uM. On the procedure: as §1, §2
Another test deals with MINK (Homo sapiens (Human), UniProt Q8N4C8). In words: Ambit KINOSCAN assay. Particulars: read-out: percent control (%) at 1 uM. It counts as binding. The method, then:
as §1, §2

In another test the test system is MM.1S cells. In words: MTT cell growth assay with stromal cell supernatant. It counts as cell-based, human. Conditions: 72 hours; for growth inhibitory effect of Lenalidomide/Pomalidomide in combination: in the presence of stromal cell supernatant. The method, then: FIG. 29 is a graph showing cell growth of MM.1S cells treated for 72 hours with Compound I-50 or I-51 alone or in combination with stromal cell supernatant in an MTT assay in triplicate.
FIG. 30 is a graph showing cell growth of MM.1S cells treated for 72 hours with Lenalidomide/Pomalidomide in the presence of stromal cell supernatant alone or in combination with Compound I-50 in an MTT assay in triplicate.
FIG. 31 is a graph showing cell growth of MM.1S cells treated for 72 hours with Lenalidomide/Pomalidomide in the presence of stromal cell supernatant alone or in combination with Compound I-51 in an MTT assay in triplicate.
MM. 1S, KMS20, H929 MM cells, RPMI/8226, OPM-2 and U266 were counted and diluted to a final concentration of 400,000 cells/mL. The cell were plated in 96-well plates and mixed with an equal volume of culture media containing DMSO or increasing concentration of a compound of the present application diluted in DMSO (the final DMSO concentration is equal between all tested samples), using a STARlet Robot (Hamiltonrobotics, Reno, Nev., United States). Cells with increasing concentration of compound of the present application and DMSO were […] at different time points (24 hrs to 72 hrs). Viability was assessed by MTT or Cell Titer 96® AQueous One Solution cell proliferation assay (Promega). Specifically, for the MTT assay, the 3-[4,5 dimethylthiazol-2-yl]-2,5 diphenyltetrazolium bromide-MTT (Sigma-Aldrich, St. Louis, Mo., Unites States) colorimetric survival assay was used. At the various time points (24-72 hrs), 10 μL of 5 mg/mL MTT were added to cells. After 4 hrs incubation at 37° C., medium was discarded and 100 μL MTT stop solution (DMSO or Isopropanol with 1 N HCl) was used to dissolve MTT metabolic products. Absorbance was read at 570/630 nm. For the Promega assay, at the various time points, 20 μL of Cell Titer solution is added to the cells. After 4 hrs of incubation at 37° C. absorbance was read at […].

In another test the target is JAK2 domain2 (Homo sapiens (Human), UniProt O60674). Briefly: KiNativ assay. It counts as binding. Particulars: H929 live cell. The gist of the method:
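KiNativ profiling in live H929 cells; single concentration 10 μM, n=2; IC50 from MS measurement.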

Where [1] appears, read: read-out: percent control (%) at 1 uM.
The mark [2] stands for this setting: range class, read-out: % inhibition.

Molecules are shown by their SMILES. Where two headings read alike, the source gives them in different places.

Chain of JAK2 domain2 (O60674 whole entry, the tested form may be a part): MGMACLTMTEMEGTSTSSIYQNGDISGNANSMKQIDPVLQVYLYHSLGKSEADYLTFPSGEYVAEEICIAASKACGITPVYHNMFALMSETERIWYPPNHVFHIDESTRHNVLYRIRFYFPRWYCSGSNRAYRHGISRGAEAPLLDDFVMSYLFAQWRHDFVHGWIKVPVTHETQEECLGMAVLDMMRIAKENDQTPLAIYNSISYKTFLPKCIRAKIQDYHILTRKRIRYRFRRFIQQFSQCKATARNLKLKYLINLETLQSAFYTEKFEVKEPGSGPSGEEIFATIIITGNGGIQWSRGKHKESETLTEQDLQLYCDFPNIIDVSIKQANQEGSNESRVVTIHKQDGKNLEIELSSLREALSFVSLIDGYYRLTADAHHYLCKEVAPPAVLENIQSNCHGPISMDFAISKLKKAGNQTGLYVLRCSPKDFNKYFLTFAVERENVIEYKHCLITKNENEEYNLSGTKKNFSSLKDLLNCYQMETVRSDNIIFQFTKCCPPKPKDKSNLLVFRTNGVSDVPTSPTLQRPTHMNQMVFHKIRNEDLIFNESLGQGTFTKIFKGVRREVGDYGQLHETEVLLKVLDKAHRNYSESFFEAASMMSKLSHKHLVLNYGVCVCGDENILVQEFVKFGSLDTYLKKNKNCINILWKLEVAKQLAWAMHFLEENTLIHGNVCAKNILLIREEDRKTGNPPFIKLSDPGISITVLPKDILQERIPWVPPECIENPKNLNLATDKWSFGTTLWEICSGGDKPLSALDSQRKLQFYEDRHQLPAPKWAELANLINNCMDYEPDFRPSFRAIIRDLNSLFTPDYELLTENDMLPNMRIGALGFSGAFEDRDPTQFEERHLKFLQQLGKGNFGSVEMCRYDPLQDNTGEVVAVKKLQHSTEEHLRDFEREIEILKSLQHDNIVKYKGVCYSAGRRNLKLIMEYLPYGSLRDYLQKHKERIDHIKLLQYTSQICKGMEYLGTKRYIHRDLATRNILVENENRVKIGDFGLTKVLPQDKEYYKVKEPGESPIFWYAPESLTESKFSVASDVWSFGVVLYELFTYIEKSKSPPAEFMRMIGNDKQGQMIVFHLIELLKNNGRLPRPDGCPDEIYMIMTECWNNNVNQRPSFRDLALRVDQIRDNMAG
Chain of CSNK1E (P49674 whole entry): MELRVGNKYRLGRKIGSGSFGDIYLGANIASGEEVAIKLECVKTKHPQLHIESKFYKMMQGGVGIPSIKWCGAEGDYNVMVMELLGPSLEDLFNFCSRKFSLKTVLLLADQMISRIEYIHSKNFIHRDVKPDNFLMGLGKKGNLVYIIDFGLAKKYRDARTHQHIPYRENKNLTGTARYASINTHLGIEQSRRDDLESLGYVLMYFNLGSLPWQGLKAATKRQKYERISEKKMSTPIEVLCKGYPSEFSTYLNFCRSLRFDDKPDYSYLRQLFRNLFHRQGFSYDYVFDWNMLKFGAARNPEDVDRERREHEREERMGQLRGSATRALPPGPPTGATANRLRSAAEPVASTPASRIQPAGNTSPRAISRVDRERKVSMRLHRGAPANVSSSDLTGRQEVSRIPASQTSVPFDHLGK
Chain of IRAK1 (P51617 whole entry): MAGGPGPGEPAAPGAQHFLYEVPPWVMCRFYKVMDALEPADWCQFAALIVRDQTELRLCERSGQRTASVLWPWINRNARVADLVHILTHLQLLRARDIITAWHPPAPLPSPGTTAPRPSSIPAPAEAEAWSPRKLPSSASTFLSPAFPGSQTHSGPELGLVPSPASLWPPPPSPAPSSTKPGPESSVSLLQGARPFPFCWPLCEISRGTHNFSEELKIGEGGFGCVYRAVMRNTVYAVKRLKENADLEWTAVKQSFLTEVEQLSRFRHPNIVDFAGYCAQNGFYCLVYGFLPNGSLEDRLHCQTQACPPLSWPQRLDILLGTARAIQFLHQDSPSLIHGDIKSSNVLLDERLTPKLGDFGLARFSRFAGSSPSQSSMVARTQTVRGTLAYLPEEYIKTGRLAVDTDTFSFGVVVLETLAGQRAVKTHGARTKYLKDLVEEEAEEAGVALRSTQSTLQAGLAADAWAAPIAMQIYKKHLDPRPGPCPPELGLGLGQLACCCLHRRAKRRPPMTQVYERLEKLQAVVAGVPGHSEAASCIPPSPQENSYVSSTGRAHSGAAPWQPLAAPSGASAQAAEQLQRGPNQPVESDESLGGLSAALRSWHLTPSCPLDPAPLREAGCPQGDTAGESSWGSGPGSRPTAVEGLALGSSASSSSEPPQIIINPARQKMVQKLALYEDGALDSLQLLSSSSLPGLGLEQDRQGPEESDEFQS
Chain of CSNK1G3 (Q9Y6M4 whole entry): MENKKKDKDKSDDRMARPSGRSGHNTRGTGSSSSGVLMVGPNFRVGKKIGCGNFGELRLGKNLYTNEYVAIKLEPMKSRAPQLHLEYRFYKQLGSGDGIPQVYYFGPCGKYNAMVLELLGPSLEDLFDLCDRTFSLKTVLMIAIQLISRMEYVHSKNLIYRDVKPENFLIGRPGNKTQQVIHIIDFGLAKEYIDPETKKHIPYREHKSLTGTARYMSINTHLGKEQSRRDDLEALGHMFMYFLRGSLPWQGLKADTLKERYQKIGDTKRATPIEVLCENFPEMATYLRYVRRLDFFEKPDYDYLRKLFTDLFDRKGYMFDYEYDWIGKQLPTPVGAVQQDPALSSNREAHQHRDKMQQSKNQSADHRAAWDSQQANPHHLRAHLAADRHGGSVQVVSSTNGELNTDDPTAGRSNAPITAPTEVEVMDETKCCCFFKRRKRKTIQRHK
Chain of CSNK1A1 (P48729 whole entry): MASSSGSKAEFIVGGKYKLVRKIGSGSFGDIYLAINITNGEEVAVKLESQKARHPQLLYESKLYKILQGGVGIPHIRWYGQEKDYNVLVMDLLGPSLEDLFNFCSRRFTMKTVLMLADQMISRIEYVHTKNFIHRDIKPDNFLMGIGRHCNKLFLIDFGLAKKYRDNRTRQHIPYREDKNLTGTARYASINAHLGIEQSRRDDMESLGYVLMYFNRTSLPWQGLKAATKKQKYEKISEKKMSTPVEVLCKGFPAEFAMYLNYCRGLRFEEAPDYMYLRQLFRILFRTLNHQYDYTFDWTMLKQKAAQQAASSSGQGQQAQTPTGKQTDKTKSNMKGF
Chain of CSNK1A1L (Q8N752 whole entry): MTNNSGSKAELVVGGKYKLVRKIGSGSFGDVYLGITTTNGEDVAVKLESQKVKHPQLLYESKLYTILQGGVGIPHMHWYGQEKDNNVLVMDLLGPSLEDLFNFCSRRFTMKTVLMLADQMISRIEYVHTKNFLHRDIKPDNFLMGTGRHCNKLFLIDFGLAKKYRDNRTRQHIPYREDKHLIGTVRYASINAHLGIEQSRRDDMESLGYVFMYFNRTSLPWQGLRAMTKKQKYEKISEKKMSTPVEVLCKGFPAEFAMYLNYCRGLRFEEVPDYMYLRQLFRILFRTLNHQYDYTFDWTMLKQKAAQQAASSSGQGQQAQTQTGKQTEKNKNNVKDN
Chain of MINK (Q8N4C8 whole entry): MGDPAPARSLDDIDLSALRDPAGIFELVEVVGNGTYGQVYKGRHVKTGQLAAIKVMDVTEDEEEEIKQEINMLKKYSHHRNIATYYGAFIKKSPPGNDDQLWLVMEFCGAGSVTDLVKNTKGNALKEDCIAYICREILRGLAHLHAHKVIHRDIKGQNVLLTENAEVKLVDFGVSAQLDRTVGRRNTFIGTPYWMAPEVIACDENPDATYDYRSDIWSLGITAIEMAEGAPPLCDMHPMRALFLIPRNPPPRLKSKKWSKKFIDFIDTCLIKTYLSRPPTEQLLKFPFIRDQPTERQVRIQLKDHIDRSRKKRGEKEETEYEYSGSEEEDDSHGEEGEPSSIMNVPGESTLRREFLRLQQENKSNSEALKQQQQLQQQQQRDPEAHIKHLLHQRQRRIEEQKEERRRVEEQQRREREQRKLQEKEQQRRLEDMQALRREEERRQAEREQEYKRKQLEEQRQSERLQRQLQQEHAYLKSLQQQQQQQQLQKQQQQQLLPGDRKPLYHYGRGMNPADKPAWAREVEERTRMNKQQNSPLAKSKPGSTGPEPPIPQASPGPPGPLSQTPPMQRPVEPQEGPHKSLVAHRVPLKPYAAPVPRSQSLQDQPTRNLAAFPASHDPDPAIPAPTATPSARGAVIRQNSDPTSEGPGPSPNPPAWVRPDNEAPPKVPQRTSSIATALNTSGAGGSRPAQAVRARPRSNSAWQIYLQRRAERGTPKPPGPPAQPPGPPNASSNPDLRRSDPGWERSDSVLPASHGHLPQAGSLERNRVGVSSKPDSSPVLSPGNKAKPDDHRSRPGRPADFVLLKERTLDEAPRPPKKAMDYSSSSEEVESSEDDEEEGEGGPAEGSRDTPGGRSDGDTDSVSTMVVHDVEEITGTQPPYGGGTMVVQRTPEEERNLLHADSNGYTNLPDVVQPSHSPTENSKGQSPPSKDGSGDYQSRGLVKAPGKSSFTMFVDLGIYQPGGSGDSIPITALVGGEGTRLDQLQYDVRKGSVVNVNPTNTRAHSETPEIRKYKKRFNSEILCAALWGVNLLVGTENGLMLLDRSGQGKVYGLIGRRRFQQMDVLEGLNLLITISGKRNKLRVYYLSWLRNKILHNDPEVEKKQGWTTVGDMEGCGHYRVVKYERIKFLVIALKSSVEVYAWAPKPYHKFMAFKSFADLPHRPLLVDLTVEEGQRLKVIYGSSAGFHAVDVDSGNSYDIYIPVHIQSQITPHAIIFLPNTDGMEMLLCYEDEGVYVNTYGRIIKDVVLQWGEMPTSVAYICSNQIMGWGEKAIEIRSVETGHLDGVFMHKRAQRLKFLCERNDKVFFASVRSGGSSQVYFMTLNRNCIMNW

The IC50 is the concentration that inhibits the measured activity by half. High values mean weaker potency, low ones greater potency. For `Nc1ncc(-c2cc([N+](=O)[O-])ccc2F)cc1-c1ccc2c(c1)CCNC2=O` [Compound I-1, 6-(2-amino-5-(2-fluoro-5-nitrophenyl)pyridin-3-yl)-3,4-dihydroisoquinolin-1(2H)-one], the IC50 on IRAK1 (Kinase Selectivity Data, IRAK1) was 0.11 µM; against CSNK1E (Kinase Selectivity Data, CSNK1E), 0.201 µM; against CSNK1G3 (Kinase Selectivity Data, CSNK1G3), 0.00468 µM. The remaining binding at 1 µM on IRAK1 (setting [1]) stood at 2.8%; on CIT, 0.05%; at CSNK1A1, 3.7%; at DRAK1, 0.15%; on CLK1, 1.6%; on CSNK1E (setting [1]), 0.1%. The remaining binding at 1 µM at DYRK2 is 3%; on CSNK1G3 (setting [1]) it was 0%; on CSNK1A1L, 1.7%; on CLK4, 2.6%; at DYRK1B it was 0.75%; on DYRK1A, 0%. Further, the remaining binding at 1 µM on MINK turned out to be 3.8%.
Usually inhibition stands for the drop in the measured response relative to a control, in per cent. Take `COc1cc(NS(=O)(=O)C2CC2)ccc1-c1cnc(N)c(-c2ccc3c(c2)CCNC3=O)c1` [Compound I-50, N-(4-(6-amino-5-(1-oxo-1,2,3,4-tetrahydroisoquinolin-6-yl)pyridin-3-yl)-3-methoxyphenyl) cyclopropanesulfonamide]: in the test on MM.1S cells, the “susceptibility of cells on co-culture with stromal cell supernatant (cell growth, MTT)” value is “enhanced the susceptibility” and the “growth inhibitory effect of Lenalidomide/Pomalidomide in combination” value is recorded as “enhanced the growth inhibitory effect”. The inhibition at 10 µM at JAK2 domain2 (setting [2]) is 0%. Besides, the inhibition at 10 µM on JAK2 domain2 (read-out: inhibition (10 μM)) was -71.2%.
On to `Nc1ncc(-c2ccc(NS(=O)(=O)C3CC3)cc2F)cc1-c1ccc2c(c1)CCNC2=O` [Compound I-51, N-(4-(6-amino-5-(1-oxo-1,2,3,4-tetrahydroisoquinolin-6-yl)pyridin-3-yl)-3-fluorophenyl) cyclopropanesulfonamide], for which, in the test on MM.1S cells, the “susceptibility of cells on co-culture with stromal cell supernatant (cell growth, MTT)” value is reported as “enhanced the susceptibility” and the “growth inhibitory effect of Lenalidomide/Pomalidomide in combination” value is given as “enhanced the growth inhibitory effect”.
For `Nc1ncc(-c2ccc(NS(=O)(=O)C3CC3)cc2OC2CCCCC2)cc1-c1ccc2c(c1)CCNC2=O` [Compound I-65, N-(4-(6-amino-5-(1-oxo-1,2,3,4-tetrahydroisoquinolin-6-yl)pyridin-3-yl)-3-(cyclohexyloxy)phenyl) cyclopropanesulfonamide], the inhibition at 10 µM at JAK2 domain2 (setting [2]) was 0%; at JAK2 domain2 (read-out: inhibition (10 μM)) it was 18.8%.

(Values after US10710978B2, “STK4 inhibitors for treatment of hematologic malignancies” (Dana-Farber Cancer Institute, Inc., priority 2015, dated 2020).)
